The values that follow come from publication PMC4109680, “Identification and Preclinical Pharmacology of the γ-Secretase Modulator BMS-869780” (International Journal of Alzheimer's Disease, 2014).

The target of data set [1] is T1, pregnane-X-receptor (Homo sapiens, UniProt O75469).
T1 construct: host or cells: HepG2
As to the kind of experiment: Pregnane-X-receptor transactivation assay (PXR-TA), luciferase reporter in HepG2 cells. Type of data set: cell-based. Here is the method:
Determination of IC50 values for inhibition of secreted alkaline phosphatase (SEAP) was carried out using an H4 cell line stably expressing SEAP. Cells were treated overnight with compounds in 384-well format, and SEAP accumulation in the culture media was quantified using a chemiluminescence substrate. The pregnane-X-receptor transactivation assay (PXR-TA) was based on the methods of Goodwin et al. as described previously. In the 4-day rat study with BMS-869780, tissues were fixed in 10% neutral buffered formalin, embedded in paraffin, sectioned, stained with hematoxylin and eosin, and examined by light microscopy.
Figure 10 BMS-869780 caused PXR activation in vitro and lipidosis in rat liver. (a) PXR activation in the presence of BMS-869780 was evaluated in HepG2 cell cultures using a luciferase transcriptional reporter construct (●), or by assay of CYP3A4 mRNA levels in primary human hepatocyte (PHH) cultures from two individual donors (▲ and ▼). Activation in both assays is expressed as % relative to activation in the presence of rifampicin, 10 μM, in parallel cultures. (b) Liver section from vehicle-dosed rats. (c) Liver section from rats given 4 daily doses of BMS-869780 at 100 mg/kg.
On the technique in general: A reporter such as luciferase makes a cellular process visible.

Data set [2] is described as follows: Triple transgenic (3xTg) mouse time course PK/PD, oral dose, indirect response model. It counts as in vivo. Conditions: female, 3xTg (triple transgenic), plasma. The method, then:
(§1) Figure 8 Analysis of the PK/PD relationship for BMS-869780 in rats and mice. Rats were dosed orally with BMS-869780 at 10 mg/kg, and triple transgenic mice were orally dosed at 30 mg/kg and 100 mg/kg. Additional groups of rats and mice were dosed with vehicle alone. Brain and plasma were harvested at 3, 5, 8, 16, and 24 hours after dosing for determination of brain Aβ1-42 and plasma BMS-869780 concentration. Group sizes were 5 rats or 4 mice. Whiskers represent standard error. […] The data were fit to a one-compartment PK model and the predicted plasma BMS-869780 concentrations are shown for mouse (solid lines) and rat (broken line). […] The data were fitted using the indirect pharmacodynamic response model and predicted values are shown (solid lines). (c) Brain Aβ1-42 levels were determined for the rats dosed with BMS-869780 at 10 mg/kg (▼) or vehicle alone (●). The data were fitted using the indirect pharmacodynamic response model and predicted values are shown (dashed line). (d) Brain Aβ1-40 levels determined in the same rats as illustrated in (c).
(§2) All experimental procedures with animals followed National Institutes of Health guidelines and were authorized by and in compliance with policies of the Bristol-Myers Squibb Animal Use and Care Committee. Mice and rats were housed with a 6:00 AM to 6:00 PM light/dark cycle and allowed free access to food and water. For 3xTg mice, BMS-869780 was dosed in three-month-old females by oral gavage at 6 mL/kg in vehicle consisting of 84% polyethylene glycol average molecular weight of 400 (PEG-400), 15% EtOH, and 1% Tween-80 (w/w/w). The compound was dissolved in EtOH and then diluted with PEG-400 and Tween, after which the vial was sealed, vortexed, and sonicated at 56°C for 1 hour. Animals were euthanized by asphyxiation in CO2. Blood was collected by cardiac puncture and placed into ethylene-diaminetetraacetic acid microtainer tubes for the preparation of plasma. The cerebellum was collected for the determination of compound concentration, and the remaining brain was separated into left and right halves before freezing in liquid nitrogen. For the rat time course study, 8- to 12-week-old female Sprague-Dawley rats were obtained from Charles River Laboratories (Wilmington, MA), BMS-869780 was dosed orally at 4 mL/kg, and brain and plasma samples were collected as described for the 3xTg mice. For the four day repeat dose rat study, BMS-869780 was given by oral gavage in vehicle consisting of PEG-400, PEG-200, D-α-tocopheryl polyethylene glycol succinate, Solutol HS 15, in the ratio 80 : 10 : 5 : 5 (w/w/w/w). Methods for the pharmacokinetics studies in rat, dog, and monkey are described below.
(§3) The data generated in the mouse and rat time course experiments were analyzed sequentially by nonlinear regression (WinNonlin Pharsight Corporation, Mountain View, CA). The pharmacokinetic data were best described by a 1-compartment linear model with first-order absorption and elimination. Subsequently, the pharmacodynamic parameters were estimated from the BMS-869780 plasma concentrations and the observed reductions of brain Aβ1-42 or Aβ1-40 by fitting to the equation for inhibition of synthesis. The goodness-of-fit was determined by visual inspection, Akaike Information Criterion, Schwartz Criterion, examination of the residuals and the coefficient of variation of the parameter estimates.

Data set [3] deals with brain Aβ1-42. The description is as above. Type of data set: in vivo. Particulars: for IC50: po. The method, then: as §1, §2, §3
[4] abbreviates: Mouse 30 mg/kg PO solution (observed 0–24 hours).
Where [5] appears, read: Mouse 100 mg/kg PO solution (observed 0–24 hours).

The structures appear in SMILES notation. Like-named read-outs stand apart in the source and are kept apart here.

T1 sequence (O75469 whole entry): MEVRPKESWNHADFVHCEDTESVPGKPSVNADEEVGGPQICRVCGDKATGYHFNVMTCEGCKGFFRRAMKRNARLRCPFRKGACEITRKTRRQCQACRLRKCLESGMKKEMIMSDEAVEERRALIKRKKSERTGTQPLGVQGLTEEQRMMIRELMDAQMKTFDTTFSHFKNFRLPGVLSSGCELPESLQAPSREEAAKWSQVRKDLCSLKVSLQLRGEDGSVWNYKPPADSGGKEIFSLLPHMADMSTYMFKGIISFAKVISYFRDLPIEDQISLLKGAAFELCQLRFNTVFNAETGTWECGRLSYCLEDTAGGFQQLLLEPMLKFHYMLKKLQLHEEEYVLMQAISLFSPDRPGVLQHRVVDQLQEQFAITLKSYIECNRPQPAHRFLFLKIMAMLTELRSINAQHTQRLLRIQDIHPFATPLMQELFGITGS

The term AUC(0-t) denotes exposure summed from dosing to a finite time, without extrapolation to infinity. On to `COc1cc(Nc2nc3n(n2)CCCC[C@H]3c2ccc(F)cc2)ccc1-n1cnc(Cl)c1` [BMS-869780], for which the “activity in PXR-TA” value in data set [1] is “robust activity”. Also, the “concentrations at which PXR transcription was activated” value in data set [1] (HepG2 luciferase reporter, relative to rifampicin 10 μM) was at least 0.3 µM. The k el in data set [2] (oral, mouse, 1-compartment PK model) was 7.78e-05 s⁻¹. Also, the AUC(0-t) in data set [2] (setting [4]) stood at 45.9 µM·h; in data set [2] (setting [5]) it was 102 µM·h. In addition, the figures for the “Brain Aβ ABEC 24 hr Aβ1-42” value in data set [3] (setting [4]) and in data set [3] (setting [5]) were 30.9% and 55.1%, respectively. The compound further had a V/F in data set [3] (mouse) of 1.94 L/kg. Moreover, the “Ka1 (30 mg/kg)” value in data set [3] (mouse, 30 mg/kg oral) stood at 0.11 h⁻¹. Further, the “Ka2 (100 mg/kg)” value in data set [3] (mouse, 100 mg/kg oral) came out at 0.046 h⁻¹. In addition, in data set [3] (mouse, calculated), the “K in” value was 72 %/h. In addition, the “K OUT” value in data set [3] (mouse, rate constant for degradation of Aβ) came to 0.72 h⁻¹. Moreover, the IC50 was 3.98 µM in data set [3] (mouse, PD model, read-out: IC50 (plasma concentration required for 50% inhibition of Aβ production)) and 4 µM in data set [3] (mouse, read-out: in vivo plasma IC50 for brain Aβ1-42).
